Source: patent US20220235325A1, “STIMULATION OF DENDRITIC CELL ACTIVITY BY HOMOTAURINE AND ANALOGUES THEREOF” (Therapeutic Solutions International, Inc., priority 2021, published 2022)

What was measured:
[1] = test system: interferon gamma production; experiment: T cell activity of PBMC plated with StemVacs dendritic cells (ELISA of interferon gamma after phytohemagglutinin); format: cell-based; details: 10 micrograms/ml; PBMC plus StemVacs; 5 micrograms per ml phytohemagglutinin; 12, 24, 36 hrs (FIG. 2)
Description: Peripheral blood mononuclear cells where obtained by ficoll centrifugation and plated with […] umbilical cord derived dendritic cells. […] was generated by culture of umbilical blood adherent cells with interleukin 4 and GM-CSF for 7 days with maturation step induced by 24 hour culture TLR agonist. Assessment of T cell activity was performed subsequent to culture of cells with taurine (10 micrograms/ml) or homotaurine (10 micrograms/ml) for the indicated timepoints. T cell activity was assessed by ELISA quantification of interferon gamma production after stimulation with 5 micrograms per ml of phytohemagglutinin.

[2] = test system: NK target cell line; experiment: Natural killer cell activity of PBMC plated with StemVacs dendritic cells (flow cytometry Promega cytotoxicity assay); format: cell-based; details: 10 micrograms/ml; PBMC plus StemVacs umbilical cord derived dendritic cells; 12, 24, 36 hrs (FIG. 1)
Description: Peripheral blood mononuclear cells where obtained by ficoll centrifugation and plated with StemVacs umbilical cord derived dendritic cells. StemVacs was generated by culture of umbilical blood adherent cells with interleukin 4 and GM-CSF for 7 days with maturation step induced by 24 hour culture TLR agonist. Assessment of natural killer cell activity was performed subsequent to culture of cells with taurine (10 micrograms/ml) or homotaurine (10 micrograms/ml) for the indicated timepoints. Cytotoxicity against NK target cell line was performed using the flow cytometry Promega assay.

[3] = test system: monocytes; details: cited from earlier work
[4] = monocytes from human peripheral blood

| SMILES | Ability of StemVacs to stimulate T cell activity (interferon gamma production) [1] | Ability of StemVacs to stimulate NK activity (cytotoxicity against NK target cell line) [2] | FcgammaR-mediated cytokine production and antibody-dependent cellular cytotoxicity by monocytes ([3]; 12 hour exposure) | Expression of ADCC associated receptors FcgammaRI, FcgammaRIIa and common gamma-subunit [3, 4] | Expression of the inhibitory FcgammaRIth molecule [3, 4] |
| --- | --- | --- | --- | --- | --- |
| NCCCS(=O)(=O)O [Homotaurine, homotaurine] | Increases Ability of StemVacs to Stimulate T Cell Activity | Increases Ability of StemVacs to Stimulate NK Activity |  |  |  |
| CCOCc1nc2c(N)nc3ccccc3c2n1CC(C)(C)O [R-848] |  |  | increased | upregulation | profound downregulation |
